Experimental data from patent US20210253520A1, “POLYMYXIN-BASED COMPOUNDS USEFUL AS ANTIBACTERIAL AGENTS” (UNIVERSITAT DE BARCELONA, priority 2018, published 2021).
Like-named read-outs stand apart in the source and are kept apart here. Numbered stars: 1 amine (or outer) side, 2 acyl side, 3 side chain; on linkers, the order of the positions; unused ones are H or OH. Bridge positions count the residues as written; N and C are the ends. Square brackets hold non-standard residues; d marks the D form. Peptide text beside a SMILES is read from it. * marks the point of attachment. X1 = C[C@@H](O)[C@@H](CS[*:1])N[*:2]; dGly(nOct) = CCCCCCCC[C@@H](N)C(=O)O; Hica(2S) = CC(C)C[C@H](O)C(=O)O; Octanoyl = CCCCCCCC(=O)*; Dab = NCC[C@H](N)C(=O)O

What was measured:
E. coli ATCC 25922 [1] = assay: microbe, parasite or virus in culture; format: cell-based; settings: for antibacterial activity (MIC): ATCC 25922
Method: (§1) The antibacterial activity of the polymyxin lipopeptides was measured at ISGlobal following the microdilution test to determine the Minimal Inhibitory Concentrations (MIC) in sterile 96-well polypropilene plates. The concentration range was 32 a […] in Iso-Sensitest broth (Oxoid, ThermoFisher). The results were carried out in triplicate and the highest MIC is the one shown. Bacterial strains were grown in blood agar plates at 37° C. for 17 h. Fresh colonies were used to prepare a McFarland 0.5 solution that was finally added to the plates at 1 to 100 dilution
(§2) Samples of sensitive and multi-drug resistant bacteria were: E. coli ATCC 25922 E. coli MB1410; K. pneumoniae MB674; P. aeruginosa ATCC 27853; P. aeruginosa 36A.

E. coli MB1410 [2] = assay: microbe, parasite or virus in culture; format: cell-based; settings: for antibacterial activity (MIC): MB1410
Method: as §1, §2

P. aeruginosa 36A [3] = assay: microbe, parasite or virus in culture; format: cell-based; settings: for antibacterial activity (MIC): 36A
Method: as §1, §2

P. aeruginosa ATCC 27853 [4] = assay: microbe, parasite or virus in culture; format: cell-based; settings: for antibacterial activity (MIC): ATCC 27853
Method: as §1, §2

K. pneumoniae MB674 [5] = format: cell-based; settings: for antibacterial activity (MIC): MB674
Method: as §1, §2

Swiss CD-1 female mice = assay: Nephrotoxicity study, histopathological scoring of kidney lesions; format: in vivo; parameters: key to Group Score (GS): mean of per-animal summed 0-4 lesion scores; higher = more nephrotoxic; key to Animal Score (AS), Partial AS: sum of 0-4 lesion parameter scores; higher = more nephrotoxic; settings: for Mice found dead / Group Score (GS) / Cell desquamation, Partial AS / Cell vacuolization, Partial AS / Cloudy swelling, Partial AS / Tubular casts, Partial AS / Tubular dilation, Partial AS / Tubular necrosis, Partial AS / Animal Score (AS), Partial AS / AS, Partial AS / Tubular dilaion, Partial AS: total 72 mg/Kg; for Animal Score (AS), Partial AS: sum over all mice; for nephrotoxicity in mice, in words: nephrotoxicity tests carried out in mice, statement of the background
Method: Swiss CD-1 female mice weighing approximately 20-24 g (JANVIER Labs) were used, housed in an individually ventilated cage system under specific pathogen-free conditions, and water and food supplied ad libitum. This study plan and the conduct of the study were subjected to review by the Scientific Park of Barcelona Ethical Review Process with the current study procedure Code CEEA (AR) 9377-P2. Mice were administered at a dose of 12 mg/Kg every 2 hours for a total of 6 administrations (total dose 72 mg/Kg), unless otherwise stated. After 20 h, animals were anesthesized with isoflurane, kidneys extracted and prepared for histopathological evaluation, and finally animales were sacrificed. Kidney lesions (tubule dilation, necrosis, tubule casts, cell vacuolization, cell desquamation, and cell swelling) were quantified by microscopical observation (see for instance, Roberts, ACS Infect. Dis., 2015, 1, 568). Each one of these parameters was scored with values from 0 to 4 for each animal, as a global result of observations in kidney. Partial scores have been added up to obtain a final score for each animal (Animal Score, AS). The mean of animal score has been obtained to define the Group Score (GS). The higher the score, the more nephrotoxic a compound is. The nephrotoxicity score has been determined as according to the following table of approximated values: […]

E. coli ATCC 25922 [6] = settings: comparative examples, extracted from Scientific Reports 5:10558 or WO2017093210A1; cited from earlier work
E. coli MB1410 [7] = settings: comparative examples, extracted from Scientific Reports 5:10558 or WO2017093210A1; cited from earlier work
K. pneumoniae MB674 [8] = settings: comparative examples, extracted from Scientific Reports 5:10558 or WO2017093210A1; cited from earlier work
P. aeruginosa ATCC 27853 [9] = settings: comparative examples, extracted from Scientific Reports 5:10558 or WO2017093210A1; cited from earlier work
P. aeruginosa 36A [10] = settings: comparative examples, extracted from Scientific Reports 5:10558 or WO2017093210A1; cited from earlier work
[11] = in vivo; cited from earlier work
[12] = cited from earlier work
[13] = Table 6, 12 mg/Kg every 2 hours × 6, subcutaneous
[14] = Table 6, mean of animal scores, 12 mg/Kg every 2 hours × 6, subcutaneous
[15] = Table 6, sum of mouse scores, 12 mg/Kg every 2 hours × 6, subcutaneous
[16] = Table 8, 12 mg/Kg every 2 hours × 6 sc, 3 mice

## CCCCCCCC(=O)N[C@@H](CCN)C(=O)N[C@H](C(=O)N[C@@H](CCN)C(=O)N[C@H]1CSSC[C@H]([C@@H](C)O)NC(=O)[C@H](CCN)NC(=O)[C@H](CCN)NC(=O)[C@H](CC(C)C)OC(=O)[C@@H](Cc2ccccc2)NC(=O)[C@H](CCN)NC1=O)[C@@H](C)O [Example 9, Octanoyl-Dab-Thr-Dab-cyclo(S-S)[Cys-Dab-DPhe-OLe-Dab-Dab-Ttr]] (Octanoyl-[Dab]T[Dab]C[Dab][dF][Hica(2S)][Dab][Dab]; linker 4-C via X1)
E. coli ATCC 25922 [1]
  antibacterial activity (MIC): 4 µg/mL
E. coli MB1410 [2]
  antibacterial activity (MIC): 1 µg/mL
P. aeruginosa 36A [3]
  antibacterial activity (MIC): 2 µg/mL
P. aeruginosa ATCC 27853 [4]
  antibacterial activity (MIC): 2 µg/mL
K. pneumoniae MB674 [5]
  antibacterial activity (MIC): 1 µg/mL
Swiss CD-1 female mice; [13]
  Mice found dead: 1
  Animal Score (AS), Partial AS: 0
Swiss CD-1 female mice; [14]
  Group Score (GS): 0
Swiss CD-1 female mice; [15]
  Cell desquamation, Partial AS: 0
  Cell vacuolization, Partial AS: 0
  Cloudy swelling, Partial AS: 0
  Tubular casts, Partial AS: 0
  Tubular dilation, Partial AS: 0
  Tubular necrosis, Partial AS: 0

## CCCCCCCC[C@@H](N)C(=O)N[C@H](C(=O)N[C@@H](CCN)C(=O)N[C@H]1CSSC[C@H]([C@@H](C)O)NC(=O)[C@H](CCN)NC(=O)[C@H](CCN)NC(=O)[C@H](CC(C)C)OC(=O)[C@@H](Cc2ccccc2)NC(=O)[C@H](CCN)NC1=O)[C@@H](C)O [Example 10, DAdec-Thr-Dab-cyclo(S-S)[Cys-Dab-DPhe-Ole-Dab-Dab-Ttr]] (H-[dGly(nOct)]T[Dab]C[Dab][dF][Hica(2S)][Dab][Dab]; linker 4-C via X1)
E. coli ATCC 25922 [1]
  antibacterial activity (MIC): 2 µg/mL
E. coli MB1410 [2]
  antibacterial activity (MIC): 1 µg/mL
P. aeruginosa 36A [3]
  antibacterial activity (MIC): 2 µg/mL
P. aeruginosa ATCC 27853 [4]
  antibacterial activity (MIC): 2 µg/mL
K. pneumoniae MB674 [5]
  antibacterial activity (MIC): 2 µg/mL
Swiss CD-1 female mice; [13]
  Mice found dead: None
  Animal Score (AS), Partial AS: 0
Swiss CD-1 female mice; [14]
  Group Score (GS): 0
Swiss CD-1 female mice; [15]
  Cell desquamation, Partial AS: 0
  Cell vacuolization, Partial AS: 0
  Cloudy swelling, Partial AS: 0
  Tubular casts, Partial AS: 0
  Tubular dilation, Partial AS: 0
  Tubular necrosis, Partial AS: 0

## Colistin [Col.]
E. coli ATCC 25922 [1]; resistance profile of strain E. coli ATCC 25922, Table 3
  MIC: 0.5 µg/mL
E. coli MB1410 [2]; resistance profile of strain E. coli MB1410, Table 3
  MIC: 0.75 µg/mL
P. aeruginosa 36A [3]; resistance profile of strain P. aeruginosa 36A, Table 3
  MIC: 1 µg/mL
P. aeruginosa ATCC 27853 [4]; resistance profile of strain P. aeruginosa ATCC 27853, Table 3
  MIC: 2 µg/mL
K. pneumoniae MB674 [5]; resistance profile of strain K. pneumoniae MB674, Table 3
  MIC: 0.2 µg/mL
E. coli ATCC 25922 [6]
  antibacterial activity (MIC): 0.5 µg/mL
E. coli MB1410 [7]
  antibacterial activity (MIC): 0.5 µg/mL
K. pneumoniae MB674 [8]
  antibacterial activity (MIC): 1 µg/mL
P. aeruginosa ATCC 27853 [9]
  antibacterial activity (MIC): 2 µg/mL
P. aeruginosa 36A [10]
  antibacterial activity (MIC): 1 µg/mL

## DAoc-Thr-Dab-cyclo(S-S)[Cys-Dab-DAoc-Leu-Dab-Dab-DCys] [compound 4]
Swiss CD-1 female mice; [16]
  Group Score (GS): All mice dead
  Mice found dead: 3
Swiss CD-1 female mice
  nephrotoxicity in mice, in words: showed nephrotoxicity
E. coli ATCC 25922 [6]
  antibacterial activity (MIC): 4 µg/mL
E. coli MB1410 [7]
  antibacterial activity (MIC): 4 µg/mL
K. pneumoniae MB674 [8]
  antibacterial activity (MIC): 2 µg/mL
P. aeruginosa ATCC 27853 [9]
  antibacterial activity (MIC): 2 µg/mL
P. aeruginosa 36A [10]
  antibacterial activity (MIC): 2 µg/mL

## DAoc-Thr-Dab-cyclo(S-S)[Cys-Dab-DNIe-Leu-Dab-Dab-DCys] [compound 5]
Swiss CD-1 female mice; [16]
  AS, Partial AS: 13
  Cell vacuolization, Partial AS: 0
  Cloudy swelling, Partial AS: 4
  Group Score (GS): 4.3
  Mice found dead: none
  Tubular casts, Partial AS: 3
  Tubular dilaion, Partial AS: 6
  Tubular necrosis, Partial AS: 0
Swiss CD-1 female mice
  nephrotoxicity in mice, in words: showed nephrotoxicity
E. coli ATCC 25922 [6]
  antibacterial activity (MIC): 16 µg/mL
E. coli MB1410 [7]
  antibacterial activity (MIC): 8 µg/mL
K. pneumoniae MB674 [8]
  antibacterial activity (MIC): 8 µg/mL
P. aeruginosa ATCC 27853 [9]
  antibacterial activity (MIC): 4 µg/mL
P. aeruginosa 36A [10]
  antibacterial activity (MIC): 2 µg/mL

## Decanoyl-Dab-Thr-Dab-cyclo(S-S)[Cys-Dab-DPhe-Nle-Dab-Dab-DCys] [compound 2]
Swiss CD-1 female mice; [16]
  AS, Partial AS: 4
  Cell vacuolization, Partial AS: 0
  Cloudy swelling, Partial AS: 3
  Group Score (GS): 4
  Mice found dead: 2 dead
  Tubular casts, Partial AS: 0
  Tubular dilaion, Partial AS: 1
  Tubular necrosis, Partial AS: 0
Swiss CD-1 female mice; listed as Decanoyl-Dab-Thr-Dab-ciclo(S—S)[Cys-Dab-DPhe-Nle-Dab-Dab-DCys)
  nephrotoxicity in mice, in words: showed toxicity
Swiss CD-1 female mice; listed as Decanoyl-Dab-Thr-Dab-cyclo(S—S)[Cys-Dab-DPhe-Leu-Dab-Dab-DCys]
  nephrotoxicity in mice, in words: showed nephrotoxicity
[11]
  toxicity in acute toxicity tests, in words: did not showed toxicity

## Heptanoyl-Dab-Thr-Dab-cyclo(S-S)[Cys-Dab-DAoc-Nle-Dab-Dab-DCys] [compound 3]
Swiss CD-1 female mice; [16]
  AS, Partial AS: 8
  Cell vacuolization, Partial AS: 3
  Group Score (GS): 8
  Mice found dead: 2 dead
  Tubular dilaion, Partial AS: 2
  Tubular necrosis, Partial AS: 3
Swiss CD-1 female mice
  nephrotoxicity in mice, in words: showed nephrotoxicity
E. coli ATCC 25922 [6]
  antibacterial activity (MIC): 16 µg/mL
E. coli MB1410 [7]
  antibacterial activity (MIC): 2 µg/mL
K. pneumoniae MB674 [8]
  antibacterial activity (MIC): 2 µg/mL
P. aeruginosa ATCC 27853 [9]
  antibacterial activity (MIC): 2 µg/mL
P. aeruginosa 36A [10]
  antibacterial activity (MIC): 2 µg/mL

## Polymyxin B [PxB]
Swiss CD-1 female mice; [13]
  Mice found dead: None
  Animal Score (AS), Partial AS: 27
Swiss CD-1 female mice; [14]
  Group Score (GS): 3.4
Swiss CD-1 female mice; [15]
  Cell desquamation, Partial AS: 0
  Cell vacuolization, Partial AS: 1
  Cloudy swelling, Partial AS: 21
  Tubular casts, Partial AS: 3
  Tubular dilation, Partial AS: 1
  Tubular necrosis, Partial AS: 1
Swiss CD-1 female mice; [16]
  AS, Partial AS: 7
  Cell vacuolization, Partial AS: 0
  Cloudy swelling, Partial AS: 6
  Group Score (GS): 2.3
  Mice found dead: none
  Tubular casts, Partial AS: 0
  Tubular dilaion, Partial AS: 1
  Tubular necrosis, Partial AS: 0
E. coli ATCC 25922 [6]
  antibacterial activity (MIC): 0.25 µg/mL
E. coli MB1410 [7]
  antibacterial activity (MIC): 0.5 µg/mL
K. pneumoniae MB674 [8]
  antibacterial activity (MIC): 0.25 µg/mL
P. aeruginosa ATCC 27853 [9]
  antibacterial activity (MIC): 1 µg/mL
P. aeruginosa 36A [10]
  antibacterial activity (MIC): 1 µg/mL
[12]; after 6 h
  kidney concentration relative to serum concentration: more than 30 time
[12]; long after administration, when barely detectable in serum
  period of accumulation in kidneys: at least 48 h
